According to ChEMBL document CHEMBL1201862, “PubChem BioAssay data set” (2004):
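Each compound was tested at five concentrations against cells in 96-well plates for 48 hours. At the GI50, growth is halved.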 Activity calls are given as the source filed them. No stated cut-off is given here; in the data, active = GI50 up to about 1.1 µM and inactive = higher.

What was measured:
Assay in all cases: NCI-60 cell line screen, 48 h
786-0 = test system: 786-0
A549 = test system: A549
CAKI-1 = test system: CAKI-1
EKVX = test system: EKVX
HCT-116 = test system: HCT-116
IGROV-1 = test system: IGROV-1
K562 = test system: K562
MDA-MB-435 = test system: MDA-MB-435
Malme-3M = test system: Malme-3M
NCI-H226 = test system: NCI-H226
NCI-H23 = test system: NCI-H23
NCI/ADR-RES = test system: NCI/ADR-RES
OVCAR-5 = test system: OVCAR-5
RXF 393 = test system: RXF 393
SF-268 = test system: SF-268
SF-539 = test system: SF-539
SK-MEL-28 = test system: SK-MEL-28
SNB-19 = test system: SNB-19
T47D = test system: T47D
A498 = test system: A498

Q: Which GI50 (786-0) does the source give for `O=C1NC(N2CCCC(CO)C2)=N/C1=C\c1ccc(Cl)cc1` (stereo not given) here?
A: The GI50 was > 100 µM (inactive).

Q: And the GI50 (A549)?
A: The GI50 was > 100 µM (inactive).

Q: And the GI50 (CAKI-1)?
A: The GI50 was > 100 µM (inactive).

Q: And the GI50 (EKVX)?
A: Its GI50 is 49.1 µM (inactive).

Q: And the GI50 (HCT-116)?
A: Its GI50 is > 100 µM (inactive).

Q: And the GI50 (IGROV-1)?
A: Its GI50 is 37.1 µM (inactive).

Q: What about the GI50 (K562) of the same compound?
A: The GI50 was > 100 µM (inactive).

Q: And the GI50 (MDA-MB-435)?
A: Its GI50 is > 100 µM (inactive).

Q: What about the GI50 (Malme-3M) of the same compound?
A: Its GI50 is > 100 µM (inactive).

Q: What about the GI50 (NCI-H226) of the same compound?
A: Its GI50 is > 100 µM (inactive).

Q: What about the GI50 (NCI-H23) of the same compound?
A: The GI50 was > 100 µM (inactive).

Q: What about the GI50 (NCI/ADR-RES) of the same compound?
A: The GI50 was > 100 µM (inactive).

Q: What about the GI50 (OVCAR-5) of the same compound?
A: The GI50 was > 100 µM (inactive).

Q: And the GI50 (RXF 393)?
A: The GI50 was > 100 µM (inactive).

Q: And the GI50 (SF-268)?
A: Its GI50 is > 100 µM (inactive).

Q: And the GI50 (SF-539)?
A: Its GI50 is > 100 µM (inactive).

Q: What about the GI50 (SK-MEL-28) of the same compound?
A: Its GI50 is > 100 µM (inactive).

Q: And the GI50 (SNB-19)?
A: The GI50 was > 100 µM (inactive).

Q: And the GI50 (T47D)?
A: Its GI50 is 75.9 µM (inactive).

Q: With `c1ccc(C[n+]2cccc(-c3cc4ccccc4[nH]3)c2)cc1` as the compound, how does the GI50 (786-0) read?
A: The GI50 was 50.1 µM (inactive).

Q: What about the GI50 (A498) of the same compound?
A: The GI50 was 39.5 µM (inactive).

Q: And the GI50 (A549)?
A: The GI50 was 91.2 µM (inactive).

Q: And the GI50 (CAKI-1)?
A: The GI50 was > 100 µM (inactive).

Q: What about the GI50 (EKVX) of the same compound?
A: The GI50 was 42.8 µM (inactive).

Q: And the GI50 (HCT-116)?
A: Its GI50 is 32.5 µM (inactive).

Q: What about the GI50 (IGROV-1) of the same compound?
A: Its GI50 is 19.4 µM (inactive).

Q: And the GI50 (K562)?
A: The GI50 was 21.6 µM (inactive).

Q: And the GI50 (MDA-MB-435)?
A: Its GI50 is 18.5 µM (inactive).

Q: What about the GI50 (Malme-3M) of the same compound?
A: The GI50 was 14.6 µM (inactive).

Q: What about the GI50 (NCI-H226) of the same compound?
A: The GI50 was 31.2 µM (inactive).

Q: What about the GI50 (NCI-H23) of the same compound?
A: Its GI50 is 16.4 µM (inactive).

Q: What about the GI50 (NCI/ADR-RES) of the same compound?
A: The GI50 was > 100 µM (inactive).

Q: And the GI50 (OVCAR-5)?
A: The GI50 was 42.7 µM (inactive).

Q: What about the GI50 (RXF 393) of the same compound?
A: The GI50 was > 100 µM (inactive).

Q: What about the GI50 (SF-268) of the same compound?
A: Its GI50 is 17.6 µM (inactive).

Q: What about the GI50 (SK-MEL-28) of the same compound?
A: Its GI50 is 16.4 µM (inactive).

Q: What about the GI50 (SNB-19) of the same compound?
A: The GI50 was 26.5 µM (inactive).

Q: And the GI50 (T47D)?
A: Its GI50 is 23.6 µM (inactive).

Q: Which results are given for `O=C(NC(CO)Cc1ccc(Oc2cc(CC(CO)NC(=O)OCc3ccccc3)ccc2OC(=O)OCc2ccccc2)cc1)OCc1ccccc1` (stereo not given)?
A: GI50 (786-0): 25.1 µM (inactive); GI50 (A498): 14.7 µM (inactive); GI50 (A549): 11.6 µM (inactive); GI50 (CAKI-1): 26 µM (inactive); GI50 (EKVX): 14.5 µM (inactive); GI50 (HCT-116): 16.7 µM (inactive); GI50 (IGROV-1): 20.3 µM (inactive); GI50 (K562): 10.9 µM (inactive); GI50 (MDA-MB-435): 16.6 µM (inactive); GI50 (Malme-3M): 16.7 µM (inactive); GI50 (NCI-H226): 16.9 µM (inactive); GI50 (NCI-H23): 16.1 µM (inactive); GI50 (NCI/ADR-RES): 28.4 µM (inactive); GI50 (OVCAR-5): 24.4 µM (inactive); GI50 (SF-268): 23.5 µM (inactive); GI50 (SF-539): 20.1 µM (inactive); GI50 (SK-MEL-28): 17.9 µM (inactive); GI50 (SNB-19): 22.4 µM (inactive); GI50 (T47D): 5.18 µM (inactive)

Q: Which results are given for `OCC(O)COCn1cc(Cn2ncc3c(SCc4ccccc4)ncnc32)nn1` (stereo not given)?
A: GI50 (786-0): > 100 µM (inactive); GI50 (A498): > 100 µM (inactive); GI50 (A549): > 100 µM (inactive); GI50 (CAKI-1): > 100 µM (inactive); GI50 (EKVX): > 100 µM (inactive); GI50 (HCT-116): > 100 µM (inactive); GI50 (IGROV-1): > 100 µM (inactive); GI50 (K562): > 100 µM (inactive); GI50 (MDA-MB-435): > 100 µM (inactive); GI50 (NCI-H226): > 100 µM (inactive); GI50 (NCI-H23): > 100 µM (inactive); GI50 (NCI/ADR-RES): > 100 µM (inactive); GI50 (OVCAR-5): > 100 µM (inactive); GI50 (SF-268): 51.4 µM (inactive); GI50 (SF-539): > 100 µM (inactive); GI50 (SK-MEL-28): > 100 µM (inactive); GI50 (SNB-19): > 100 µM (inactive); GI50 (T47D): > 100 µM (inactive)

Q: For `CC/C=C/c1cc2c(cc1O)CCC1C2CC[C@@]2(C)C1CC[C@@H]2O` (stereo not given in full), which GI50 (786-0) is on record?
A: The GI50 was 2.34 µM (inactive).

Q: What about the GI50 (A498) of the same compound?
A: Its GI50 is 2.56 µM (inactive).

Q: What about the GI50 (A549) of the same compound?
A: Its GI50 is 4.12 µM (inactive).

Q: What about the GI50 (CAKI-1) of the same compound?
A: The GI50 was 0.524 µM (active).

Q: What about the GI50 (EKVX) of the same compound?
A: Its GI50 is 3.53 µM (inactive).

Q: What about the GI50 (HCT-116) of the same compound?
A: The GI50 was 1.02 µM (active).

Q: What about the GI50 (IGROV-1) of the same compound?
A: Its GI50 is 4.37 µM (inactive).

Q: And the GI50 (K562)?
A: The GI50 was 1.28 µM (inactive).

Q: And the GI50 (MDA-MB-435)?
A: The GI50 was 0.246 µM (active).

Q: And the GI50 (Malme-3M)?
A: Its GI50 is 0.524 µM (active).

Q: What about the GI50 (NCI-H226) of the same compound?
A: The GI50 was 1.47 µM (inactive).

Q: And the GI50 (NCI-H23)?
A: The GI50 was 3.33 µM (inactive).

Q: And the GI50 (NCI/ADR-RES)?
A: Its GI50 is 0.667 µM (active).

Q: And the GI50 (OVCAR-5)?
A: Its GI50 is 12.5 µM (inactive).

Q: What about the GI50 (RXF 393) of the same compound?
A: The GI50 was 1.08 µM (active).

Q: And the GI50 (SF-268)?
A: Its GI50 is 10.2 µM (inactive).

Q: And the GI50 (SK-MEL-28)?
A: Its GI50 is 11.3 µM (inactive).

Q: What about the GI50 (SNB-19) of the same compound?
A: Its GI50 is 2.6 µM (inactive).

Q: And the GI50 (T47D)?
A: Its GI50 is 2.86 µM (inactive).

Q: What does the source list for `C1=C\SS/C=C\SS/C=C\SS/C=C\SS/1`?
A: GI50 (786-0): 46 µM (inactive); GI50 (A498): > 100 µM (inactive); GI50 (A549): > 100 µM (inactive); GI50 (CAKI-1): 30.3 µM (inactive); GI50 (EKVX): > 100 µM (inactive); GI50 (HCT-116): > 100 µM (inactive); GI50 (IGROV-1): > 100 µM (inactive); GI50 (K562): 27.9 µM (inactive); GI50 (MDA-MB-435): > 100 µM (inactive); GI50 (Malme-3M): 41.7 µM (inactive); GI50 (NCI-H226): > 100 µM (inactive); GI50 (NCI-H23): > 100 µM (inactive); GI50 (NCI/ADR-RES): > 100 µM (inactive); GI50 (OVCAR-5): > 100 µM (inactive); GI50 (RXF 393): 80.9 µM (inactive); GI50 (SF-268): 70.8 µM (inactive); GI50 (SK-MEL-28): > 100 µM (inactive); GI50 (SNB-19): 67.5 µM (inactive); GI50 (T47D): > 100 µM (inactive)

Q: How did the GI50 (786-0) turn out when `O=C1c2scc(-c3ccccc3)c2-n2cccc21` was run?
A: Its GI50 is 13.9 µM (inactive).

Q: What about the GI50 (A498) of the same compound?
A: Its GI50 is 1.72 µM (inactive).

Q: What about the GI50 (A549) of the same compound?
A: Its GI50 is 18.5 µM (inactive).

Q: And the GI50 (CAKI-1)?
A: The GI50 was 11.4 µM (inactive).

Q: And the GI50 (EKVX)?
A: The GI50 was 4.89 µM (inactive).

Q: And the GI50 (HCT-116)?
A: Its GI50 is 13.4 µM (inactive).

Q: And the GI50 (IGROV-1)?
A: The GI50 was 2.59 µM (inactive).

Q: What about the GI50 (MDA-MB-435) of the same compound?
A: Its GI50 is 14.5 µM (inactive).

Q: And the GI50 (Malme-3M)?
A: Its GI50 is 16.4 µM (inactive).

Q: What about the GI50 (NCI-H226) of the same compound?
A: The GI50 was 10.2 µM (inactive).

Q: What about the GI50 (NCI/ADR-RES) of the same compound?
A: The GI50 was 17.5 µM (inactive).

Q: What about the GI50 (OVCAR-5) of the same compound?
A: The GI50 was 21 µM (inactive).

Q: And the GI50 (RXF 393)?
A: Its GI50 is 14 µM (inactive).

Q: And the GI50 (SF-268)?
A: Its GI50 is 14.3 µM (inactive).

Q: What about the GI50 (SK-MEL-28) of the same compound?
A: The GI50 was 15.2 µM (inactive).

Q: What about the GI50 (SNB-19) of the same compound?
A: Its GI50 is 15.9 µM (inactive).

Q: And the GI50 (T47D)?
A: Its GI50 is 17.7 µM (inactive).
